Results on 32 compounds are retold here after ChEMBL document CHEMBL1140024 (Bioorg Med Chem Lett, 2007).

Common to all, as to assay type: functional
For test [1], the target named is T1, Peroxisome proliferator-activated receptor alpha (Homo sapiens, UniProt Q07869).
T1 sequence (Q07869 whole entry): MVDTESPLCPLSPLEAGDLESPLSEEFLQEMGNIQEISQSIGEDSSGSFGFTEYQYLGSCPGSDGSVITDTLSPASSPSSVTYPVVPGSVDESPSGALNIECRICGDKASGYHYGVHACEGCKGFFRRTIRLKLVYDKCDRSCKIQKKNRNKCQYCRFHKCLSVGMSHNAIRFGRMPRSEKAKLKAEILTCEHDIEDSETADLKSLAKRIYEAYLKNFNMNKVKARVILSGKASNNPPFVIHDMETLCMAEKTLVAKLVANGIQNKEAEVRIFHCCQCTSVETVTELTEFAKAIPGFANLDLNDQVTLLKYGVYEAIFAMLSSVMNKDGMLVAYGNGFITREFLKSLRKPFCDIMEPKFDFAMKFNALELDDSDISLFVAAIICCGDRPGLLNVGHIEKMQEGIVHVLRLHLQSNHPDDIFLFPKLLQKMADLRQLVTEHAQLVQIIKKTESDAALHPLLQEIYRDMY
The test can be described thus: Agonist activity at human recombinant PPARalpha by GAL4 transactivation assay.

Test [2] concerns the target T2, Peroxisome proliferator-activated receptor delta (Homo sapiens, UniProt Q03181).
T2 sequence (Q03181 whole entry): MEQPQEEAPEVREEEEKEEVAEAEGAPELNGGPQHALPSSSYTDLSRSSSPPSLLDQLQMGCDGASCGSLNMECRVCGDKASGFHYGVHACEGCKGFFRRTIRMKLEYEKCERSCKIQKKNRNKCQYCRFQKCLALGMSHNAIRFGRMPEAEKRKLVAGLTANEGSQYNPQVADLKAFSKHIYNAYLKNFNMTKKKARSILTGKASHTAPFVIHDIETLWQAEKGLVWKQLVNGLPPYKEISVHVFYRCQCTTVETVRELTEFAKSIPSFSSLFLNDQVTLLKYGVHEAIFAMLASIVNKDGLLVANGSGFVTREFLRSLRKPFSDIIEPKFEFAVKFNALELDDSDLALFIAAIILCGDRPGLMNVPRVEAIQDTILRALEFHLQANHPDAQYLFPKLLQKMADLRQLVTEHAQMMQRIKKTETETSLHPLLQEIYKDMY
In words: Agonist activity at human recombinant PPARdelta by GAL4 transactivation assay.

In test [3] the target is T3, Peroxisome proliferator-activated receptor gamma (Homo sapiens, UniProt P37231).
T3 sequence (P37231 whole entry): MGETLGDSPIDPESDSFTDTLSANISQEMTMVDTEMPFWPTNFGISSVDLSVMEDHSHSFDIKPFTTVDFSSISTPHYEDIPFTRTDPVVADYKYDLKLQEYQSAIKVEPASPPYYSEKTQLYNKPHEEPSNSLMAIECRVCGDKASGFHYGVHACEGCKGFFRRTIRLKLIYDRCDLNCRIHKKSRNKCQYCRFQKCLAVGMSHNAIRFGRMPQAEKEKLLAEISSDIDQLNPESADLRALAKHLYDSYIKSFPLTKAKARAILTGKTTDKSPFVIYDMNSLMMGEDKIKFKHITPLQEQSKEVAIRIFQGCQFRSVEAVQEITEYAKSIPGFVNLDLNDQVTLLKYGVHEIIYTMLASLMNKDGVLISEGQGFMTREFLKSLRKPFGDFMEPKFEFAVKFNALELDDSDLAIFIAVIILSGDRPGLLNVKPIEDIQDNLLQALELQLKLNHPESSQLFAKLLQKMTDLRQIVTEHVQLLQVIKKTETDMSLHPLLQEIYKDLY
The test can be described thus: Agonist activity at human recombinant PPARgamma by GAL4 transactivation assay.

Test [4] deals with Rattus norvegicus. In words: Increase in liver weight in Sprague-Dawley rat at 1 mg/kg after 7 days.
Test [5] relates to Rattus norvegicus. The test can be described thus: Decrease in triglyceride level in Sprague-Dawley rat at 1 mg/kg after 7 days. On the set-up: scale not given: the % may be the effect or the level left.
In test [6] the test system is Mus musculus. The test can be described thus: Increase in plasma HDL-C in human apoA1 transgenic mouse at 3 mg/kg after 14 days.
Test [7] has as its system Mus musculus. In words: Increase in plasma HDL-C in human apoA1 transgenic mouse at 300 mg/kg after 14 days.
Test [8] deals with Mus musculus. In words: Increase in plasma HDL-C in human apoA1 transgenic mouse at 1 mg/kg after 14 days.

What is called EC50 is the concentration at which the effect is half-maximal. With `CCC(Oc1cccc(CN(CCCOc2ccccc2)c2nc3cc(C(F)(F)F)ccc3o2)c1)C(=O)O` (centres undefined), the EC50 in test [1] (read-out: EC50) was 23 nM; in test [2] (read-out: EC50), 160 nM; in test [3] (read-out: EC50), 400 nM.

With `CCC(Oc1cccc(CN(CCCOc2ccccc2)c2nc3cc(C)ccc3o2)c1)C(=O)O` (centres undefined), the concentration giving a half-maximal response (EC50) is 100 nM in test [1] (read-out: EC50), 5000 nM in test [2] (read-out: EC50) and more than 10000 nM in test [3] (read-out: EC50).

Consider `CCC(Oc1cccc(CN(CCCOc2ccccc2)c2nc3cc(O)ccc3o2)c1)C(=O)O` (centres undefined), for which the EC50 in test [1] (read-out: EC50) is 180 nM; in test [2] (read-out: EC50), 140 nM; in test [3] (read-out: EC50), more than 10000 nM.

Consider `CCC(Oc1cccc(CN(CCCOc2ccc(F)cc2)c2nc3ccccc3o2)c1)C(=O)O` (centres undefined), for which the EC50 in test [1] (read-out: EC50) was 8 nM; in test [3] (read-out: EC50), more than 10000 nM.

Turning to `CCC(Oc1cccc(CN(CCCOc2ccc(OC)cc2)c2nc3ccccc3o2)c1)C(=O)O` (centres undefined), in test [3] (read-out: EC50), the EC50 was more than 10000 nM.

Take `CCC(Oc1cccc(CN(CCCOc2cccc([N+](=O)[O-])c2)c2nc3ccccc3o2)c1)C(=O)O` (centres undefined): the EC50 was 24 nM in test [1] (read-out: EC50), 1400 nM in test [2] (read-out: EC50) and more than 10000 nM in test [3] (read-out: EC50).

For the compound `CCC(Oc1cccc(CN(CCCOc2ccc(C)cc2)c2nc3ccccc3o2)c1)C(=O)O` (centres undefined), the half-maximal effective concentration (EC50) was 120 nM in test [2] (read-out: EC50) and 210 nM in test [3] (read-out: EC50).

Regarding `CCC(Oc1cccc(CN(CCCOc2ccc(C)c(C)c2)c2nc3ccccc3o2)c1)C(=O)O` (centres undefined), the EC50 came to 1 nM in test [1] (read-out: EC50), 830 nM in test [2] (read-out: EC50) and 750 nM in test [3] (read-out: EC50).

On to `CCC(Oc1cccc(CN(CCCOc2ccc(F)cc2F)c2nc3ccccc3o2)c1)C(=O)O` (centres undefined), for which the half-maximal effective concentration (EC50) in test [1] (read-out: EC50) came out at 11 nM; in test [2] (read-out: EC50), 6500 nM; in test [3] (read-out: EC50), 2100 nM.

As for `CCC(Oc1cccc(CN(CCCOc2ccc(O)cc2)c2nc3ccccc3o2)c1)C(=O)O` (centres undefined), the results for the EC50 in test [1] (read-out: EC50), in test [2] (read-out: EC50) and in test [3] (read-out: EC50) were 260 nM, 3 nM and 1400 nM, respectively.

For `CC[C@@H](Oc1cccc(CN(CCCOc2ccc(F)cc2)c2nc3ccccc3o2)c1)C(=O)O`, the results for the Activity with Rattus norvegicus [4], with Rattus norvegicus [5] and in the test on Mus musculus [6] were 20%, -46% and 147%, respectively.

On to `CC[C@H](Oc1cccc(CN(CCCOc2ccc(F)cc2)c2nc3ccccc3o2)c1)C(=O)O`, for which the EC50 in test [1] (read-out: EC50) amounted to 20 nM; in test [2] (read-out: EC50), 1570 nM; in test [3] (read-out: EC50), 1190 nM.

`CC(C)(Oc1ccccc1CN(CCOc1ccccc1)c1nc2ccccc2o1)C(=O)O`: the EC50 entry in test [1], in test [2] and in test [3] was “Not Active” in each case.

As to `CC(C)(Oc1ccc(CN(CCOc2ccccc2)c2nc3ccccc3o2)cc1)C(=O)O`, the EC50 result in test [1], in test [2] and in test [3] was “Not Active” throughout.

For `CC(C)(Oc1cccc(CN(CCOc2ccccc2)c2nc3ccccc3o2)c1)C(=O)O`, the EC50 turned out to be 630 nM in test [1] (read-out: EC50) and 2100 nM in test [3] (read-out: EC50).

For the compound `CC[C@H](Oc1cccc(CN(CCCOc2ccc(OC)cc2)c2nc3ccccc3o2)c1)C(=O)O`, the 50% effective concentration (EC50) was 1800 nM in test [2] (read-out: EC50) and 1310 nM in test [3] (read-out: EC50).

For `CC(C)(Oc1cccc(CN(CCCOc2ccccc2)c2nc3ccccc3o2)c1)C(=O)O`, the 50% effective concentration (EC50) in test [1] (read-out: EC50) was found to be 190 nM; in test [2] (read-out: EC50), 1400 nM; in test [3] (read-out: EC50), 5000 nM.

In the case of `CC(Oc1cccc(CN(CCCOc2ccccc2)c2nc3ccccc3o2)c1)C(=O)O` (centres undefined), in test [2] (read-out: EC50), the EC50 turned out to be 2700 nM.

On to `CCC(Oc1cccc(CN(CCCOc2ccccc2)c2nc3ccccc3o2)c1)C(=O)O` (centres undefined), for which the half-maximal effective concentration (EC50) in test [1] (read-out: EC50) was 9 nM; in test [3] (read-out: EC50) it was more than 10000 nM.

For the compound `CC(Oc1cccc(CCN(CCCOc2ccccc2)c2nc3ccccc3o2)c1)C(=O)O` (centres undefined), the values for the EC50 in test [1] (read-out: EC50), in test [2] (read-out: EC50) and in test [3] (read-out: EC50) were 10 nM, 2300 nM and 1800 nM, respectively.

Take `CCC(Oc1cccc(CN(CCCOc2ccccc2)c2nc3ccc(F)cc3o2)c1)C(=O)O` (centres undefined): the results for the half-maximal effective concentration (EC50) in test [1] (read-out: EC50), in test [2] (read-out: EC50) and in test [3] (read-out: EC50) were 5 nM, 1900 nM and 1100 nM, respectively.

Take `CCC(Oc1cccc(CN(CCCOc2ccc(F)c(F)c2)c2nc3ccccc3o2)c1)C(=O)O` (centres undefined): the figures for the EC50 in test [1] (read-out: EC50), in test [2] (read-out: EC50) and in test [3] (read-out: EC50) were 2 nM, 1300 nM and 1800 nM, respectively.

For `CC[C@@H](Oc1cccc(CN(CCCOc2ccccc2)c2nc3ccccc3o2)c1)C(=O)O`, the Activity in the test with Rattus norvegicus [4] is reported as 19%; with Rattus norvegicus [5], -51%; with Mus musculus [6] it was 201%.

`CCC(Oc1cccc(CN(CCCOc2ccccc2)c2nc3c(O)cccc3o2)c1)C(=O)O` (centres undefined): the concentration giving a half-maximal response (EC50) in test [1] (read-out: EC50) is 160 nM; in test [2] (read-out: EC50), 1900 nM; in test [3] (read-out: EC50), 2000 nM.

In the case of `CCC(Oc1cccc(CN(CCCOc2ccc(S(=O)(=O)OC)cc2)c2nc3ccccc3o2)c1)C(=O)O` (centres undefined), the EC50 in test [1] (read-out: EC50) was 120 nM; in test [3] (read-out: EC50) it was more than 10000 nM.

Regarding `CC[C@H](Oc1cccc(CN(CCCOc2ccccc2)c2nc3ccccc3o2)c1)C(=O)O`, the EC50 is 130 nM in test [1] (read-out: EC50), 1660 nM in test [2] (read-out: EC50) and 870 nM in test [3] (read-out: EC50).

For `CC(C)(Oc1cccc(CCCN(CCOc2ccccc2)c2nc3ccccc3o2)c1)C(=O)O`, the concentration giving a half-maximal response (EC50) in test [2] (read-out: EC50) came out at 800 nM; in test [3] (read-out: EC50), 100 nM.

As for `CCC(Oc1cccc(CN(CCCOc2ccccc2)c2nc3cccc(F)c3o2)c1)C(=O)O` (centres undefined), the half-maximal effective concentration (EC50) was 2 nM in test [1] (read-out: EC50), 8000 nM in test [2] (read-out: EC50) and 530 nM in test [3] (read-out: EC50).

Regarding `CCC(Oc1cccc(CN(CCCOc2ccc(C)cc2C)c2nc3ccccc3o2)c1)C(=O)O` (centres undefined), the values for the EC50 in test [1] (read-out: EC50), in test [2] (read-out: EC50) and in test [3] (read-out: EC50) were 1 nM, 110 nM and 130 nM, respectively.

`CCC(Oc1cccc(CN(CCCOc2ccc3c(c2)OCO3)c2nc3ccccc3o2)c1)C(=O)O` (centres undefined): the half-maximal effective concentration (EC50) came out at 7 nM in test [1] (read-out: EC50), 1700 nM in test [2] (read-out: EC50) and 1800 nM in test [3] (read-out: EC50).

In the case of `CC(C)OC(=O)C(C)(C)Oc1ccc(C(=O)c2ccc(Cl)cc2)cc1` [FENOFIBRATE], the Activity with Mus musculus [7] amounted to 145%.

As to `CC[C@@H](Oc1cccc(CN(CCCOc2ccc(OC)cc2)c2nc3ccccc3o2)c1)C(=O)O` [PEMAFIBRATE], the EC50 in test [2] (read-out: EC50) stood at 1580 nM. The figures for the Activity in the test with Rattus norvegicus [4], with Mus musculus [8] and with Rattus norvegicus [5] were 25%, 194% and -49%, respectively.
